Test results taken from patent US7582483B2, “Method of detecting viable cells” (Fuji Electric Holdings Co., Ltd., priority 2004, dated 2009).

Test system: Escherichia coli
Test: detection of viable microbes in solid food (namul of spinach) with added Escherichia coli, CFDA and Phenol Red solutions at various pH
Assay type: cell-based
Settings: pH 5 of the CFDA solution and the Phenol Red solution
Description: In a second example, detection of live microbes was conducted using solid food (namul of spinach) to which Escherichia coli were added. The treatment to extract the microbes from the solid food into liquid was carried out referring to “A Guide to Food Sanitation Test, Volume on Microorganisms” (in Japanese; published by Japan Food Hygiene Association, 1990). Ten grams of the solid food (namul of spinach) to which Escherichia coli (about 10^7) was added was aliquoted into a stomacher bag. (The stomacher bag is made of flexible plastic film such as polyethylene and sterilized by radiation. There is a compartment inside the stomacher bag created by a partition of non-woven fabric or a plastic film with a pore size of about 0.28 mm diameter, and a liquid component can be extracted excluding relatively large solid bodies from the compartment. The aliquot of the solid food is supplied with 90 mL of sterile phosphate buffer saline and crushed and dispersed using a stomacher. A stomacher is an apparatus for extracting live microbes contained in food to liquid. In the stomacher, the stomacher bag containing food is placed between a fixed plate and a paddle and the food is crushed and dispersed by squeezing the bag containing food while moving the paddle back and forth. […] Using the liquid, viable microbes were detected in a procedure similar to that in Example 1. […]

## carboxyfluorescein diacetate [CFDA]
  staining of viable microbes with the fluorescent dye: the viable microbes were not stained with the fluorescent dye
